Source: US6407126B1 (priority 1997, dated 2002)
Like-named read-outs stand apart in the source and are kept apart here.

Tested on: Phytophthora infestans
Format: in vivo
Conditions: tomato leaves, infected next day, evaluated after 6 days
[1] = 50 ppm active ingredient in the spray liquor
[2] = 100 ppm active ingredient in the spray liquor

Compound	Efficacy in % of the untreated control (25 ppm active ingredient in the spray liquor)	Efficacy in % of the untreated control [1]	Efficacy in % of the untreated control [2]	Efficacy in % of the untreated control (12.5 ppm active ingredient in the spray liquor)
CC1(c2ccc(Oc3ccccc3)cc2)OC(=O)N(Nc2ccccc2)C1=O (stereo not drawn) [Compound VI]	70%	70%	80%	–
manganese ethylenebis(dithiocarbamate) (zinc complex) [Compound IIa]	–	–	–	70%
O=C(Nc1ccccc1-c1ccc(F)cc1)c1cccnc1Cl [Compound I.1]	–	0%	0%	–
